≈ marks a conversion by molar mass, not a printed value. Calls of active or inactive are those of the source. No cut-off for these calls is given here.
What was measured:
[1] = Cytotoxicity against human MT4 cells by MTT assay; type: cell-based
Klebsiella pneumoniae = experiment: Antimicrobial activity against Klebsiella pneumoniae; type: functional
Simplexvirus = experiment: Antiviral activity against HSV up to 200 ug/mL by extracellular virucidal assay; type: functional, organism-based
Enterobacter cloacae = experiment: Antimicrobial activity against Enterobacter cloacae; type: functional
[2] = tested on: Mycolicibacterium fortuitum; experiment: Antimicrobial activity against Mycobacterium fortuitum; type: functional
[3] = tested on: Human immunodeficiency virus; experiment: Antiviral activity against HIV infected in human MT4 cells assessed as inhibition of virus-induced cytopathic effect by MTT assay; type: functional, organism-based; details: Human immunodeficiency virus 1, MT4
Staphylococcus aureus = experiment: Antimicrobial activity against Staphylococcus aureus; type: functional
Escherichia coli = experiment: Antimicrobial activity against Escherichia coli; type: functional
[4] = Antioxidant activity assessed as superoxide radical anion scavenging activity; type: functional
Proteus vulgaris = experiment: Antimicrobial activity against Proteus vulgaris; type: functional
Pseudomonas aeruginosa = experiment: Antimicrobial activity against Pseudomonas aeruginosa; type: functional
[5] = Selectivity index, ratio of CC50 for human MT4 cells to IC50 for HIV infected in human MT4 cells; type: functional
[6] = Modulation of alternative complement pathway system assessed as hemoglobin release by spectrophotometry
Salmonella paratyphi = experiment: Antimicrobial activity against Salmonella paratyphi; type: functional, Salmonella enterica subsp. enterica serovar Paratyphi A; details: Salmonella enterica
[7] = Modulation of classical complement pathway system assessed as hemoglobin release by spectrophotometry
Candida albicans = experiment: Antimicrobial activity against Candida albicans; type: functional
Streptococcus pyogenes = experiment: Antimicrobial activity against Streptococcus pyogenes; type: functional
Bacillus cereus = experiment: Antimicrobial activity against Bacillus cereus; type: functional

SMILES	CC50 [1]	Activity (Simplexvirus)	MBC (Enterobacter cloacae)	MIC (Enterobacter cloacae)	MBC [2]	MIC [2]	IC50 [3]	MBC (Staphylococcus aureus)	MIC (Staphylococcus aureus)	MBC (Escherichia coli)	MIC (Escherichia coli)	IC50 [4]	MBC (Pseudomonas aeruginosa)	MIC (Pseudomonas aeruginosa)	Ratio CC50/IC50 [5]	IC50 [6]	MBC (Salmonella paratyphi)	MIC (Salmonella paratyphi)	IC50 [7]	MBC (Candida albicans)	further results
Oc1cc(O)c2c(c1)O[C@H](c1cc(O)c(O)c(O)c1)[C@H](O)C2 [EPIGALLOCATECHIN]	16.1 µg/mL (≈ 52.6 µM)	inactive	> 100 µg/mL	> 100 µg/mL	> 100 µg/mL	> 100 µg/mL	> 16.1 µg/mL	> 100 µg/mL	> 100 µg/mL	> 100 µg/mL	> 100 µg/mL	3.4 µM	> 100 µg/mL	> 100 µg/mL	<1	179 µM	> 100 µg/mL	> 100 µg/mL	19.6 µM	> 100 µg/mL	MBC (Klebsiella pneumoniae): 100 µg/mL (≈ 327 µM); MIC (Klebsiella pneumoniae): 100 µg/mL (≈ 327 µM); MBC (Proteus vulgaris): 100 µg/mL (≈ 327 µM); MIC (Proteus vulgaris): 50 µg/mL (≈ 163 µM); MIC (Candida albicans): > 100 µg/mL
Oc1cc(O)c2c(c1)O[C@@]1(c3ccc(O)c(O)c3)Oc3cc(O)c4c(c3[C@@H]2[C@H]1O)O[C@H](c1ccc(O)c(O)c1)[C@H](O)C4 [PROANTHOCYANIDIN A2]	138 µg/mL (≈ 239 µM)	inactive	> 100 µg/mL	> 100 µg/mL	> 100 µg/mL	> 100 µg/mL	5.8 µg/mL (≈ 10.1 µM)	> 100 µg/mL	> 100 µg/mL	> 100 µg/mL	> 100 µg/mL	17.8 µM	> 100 µg/mL	> 100 µg/mL	24	113 µM	> 100 µg/mL	> 100 µg/mL	11.6 µM	> 100 µg/mL	MBC (Streptococcus pyogenes): 50 µg/mL (≈ 86.7 µM); MIC (Streptococcus pyogenes): 50 µg/mL (≈ 86.7 µM); MIC (Bacillus cereus): 100 µg/mL (≈ 173 µM); MIC (Candida albicans): > 100 µg/mL
